Laboratory results published in US20130065914A1, “HALOGEN OR CYANO SUBSTITUTED THIENO [2,3-D]PYRIMIDINES HAVING MNK1/MNK2 INHIBITING ACTIVITY FOR PHARMACEUTICAL COMPOSITIONS” (BOEHRINGER INGELHEIM INTERNATIONAL GMBH, priority 2010, published 2013).
Structures can show the parent of a compound that is named as a salt.

Test system: Mnk2 (Mnk2a or Mnk2b) or Mnk1
Assay: not given
Details: cell culture cells transfected with Mnk2 (Mnk2a or Mnk2b) or Mnk1; cited from earlier work

With `Nc1ncnc2n[nH]c(Nc3ccc(F)cc3)c12` [CGP57380] as the compound, how does the “reduction of phosphorylated eIF4E” value read?
The value was “strong reduction”.

Biological target: T1, human Mnk2a (Homo sapiens, UniProt Q9HBH9)
T1 construct: the open reading frames of human Mnk1 and Mnk2a were amplified from cDNA; made in house; host or cells: E. coli BL21
Assay: Mnk2a in vitro kinase assay (indirect fluorescence polarization)
Format: biochemical
Details: assay of example 2a; 20 μM ATP, 2.5 nM pre-activated Mnk2a; read-out: MNK2 Inhibition (IC50)
Description: Assay principle: Inhibitory potency of compounds against Mnk1, Mnk2a and other kinases was assessed with assays based on a format known to those skilled in the art as the indirect (competitive) fluorescence polarization. The assay detection system comprises a small fluorophore-labeled phospho-peptide (termed ligand) bound to a phospho-specific antibody. The product generated by the kinase reaction competes with the ligand for antibody binding. Based on the larger molecular volume of the bound ligand, which results in a lower rotation rate in solution, its emitted light has a higher degree of polarization than the one from the free ligand.
As a source of enzyme, human Mnk1 and human Mnk2a were expressed as GST fusion proteins in E. coli, purified to >80% homogeneity by glutathione affinity chromatography and activated in vitro with pre-activated ERK2. In brief, the open reading frames of human Mnk1 and Mnk2a were amplified from cDNA using the forward/reverse primer pairs
(utilized restriction sites underlined), respectively, and cloned into the BamHI and SalI sites of the vector pGEX-4T1 (Amersham, Sweden, cat. no. 27-4580-01). These constructs allow prokaryotic expression of Mnk1 or Mnk2a as fusion protein with a N-terminal glutathione S-transferase (GST) tag, referred to as GST-Mnk1 or GST-Mnk2a. The following expression and purification procedure was identical for GST-Mnk1 and GST-Mnk2a, referring in general to GST-Mnk, when not distinguishing between the two isoforms. Expression of GST-Mnk was in E. coli BL21 (Merck Biosciences, Germany, cat. no. 69449). Cells were grown in LB-Bouillon (Merck, Germany, cat. no. 1.10285) supplemented with 100 μg/ml ampicillin (Sigma, Germany, cat. no. A9518) at 37° C. When the culture had reached a density corresponding to an A600 of 0.8, an equal volume of ice cold LB/ampicillin was added, the culture transferred to 25° C. and induced for 4 h with 1 mM isopropyl thiogalactoside (IPTG, Roth, Germany, cat. no. 2316.4). Cells harvested by centrifugation were resuspended in 10 ml lysis buffer (50 mM tris(hydroxymethyl)aminomethane hydrochloride (Tris/HCl, Sigma, Germany, cat. no. T5941) pH 7.5, 300 mM sodium chloride (NaCl, Sigma, Germany, cat. no. S7653), 5% (w/v) glycerol (Sigma, Germany, cat. no. G5516), 3 mM DTT dithiotreitol (DTT, Sigma, Germany, cat. no. D9779)) per gram wet weight cell pellet. Lysates were prepared by disruption of cells with a sonifier and subsequent clearing by centrifugation at 38000 g for 45 min at 4° C.
The lysate was applied to a GSTPrep FF 16/10 column (Amersham, Sweden, cat. no. 17-5234-01) equilibrated with lysis buffer. Removal of unbound material was with 3 column volumes (CV) lysis buffer. Elution was with 2 CV of elution buffer (50 mM Tris/HCl pH 7.5, 300 mM NaCl, 5% (w/v) glycerol, 20 mM glutathione (Sigma, Germany, cat. no. G4251)). Peak fractions were pooled and the protein transferred into storage buffer (50 mM Tris/HCl pH 7.5, 200 mM NaCl, 0.1 mM ethylene glycol-bis(2-aminoethylether)-N,N,N′,N′-tetraacetic acid (EGTA, Aldrich, Germany, cat. no. 23, 453-2), 1 mM DTT, 10% (w/v) glycerol, 0.5 M sucrose (Sigma, Germany, cat. no. S0389) by gel filtration on a PD10 desalting column (Amersham, Sweden, cat. no. 17-0851-01). Aliquots were shock frozen in liquid nitrogen and stored at −80° C.
Activation of Mnk1 and Mnk2a was at a concentration of 2.5 μM of either purified GST-Mnk1 or GST-Mnk2a by incubation with 150 nM pre-activated NHis-ERK2 (see ERK2 assay for preparation) and 50 μM adenosine triphosphate (ATP, Sigma, cat. no. A2699) in a buffer comprising 20 mM N-(2-hydroxyethyl)piperazine-N′-(2-ethanesulfonic acid) (HEPES, Fluka, Germany, cat. no 54459)/potassium hydroxide (KOH, Roth, Germany, cat. no 6751.1) pH 7.4, 10 mM magnesium chloride (MgCl2, Sigma, Germany, cat. no. M2670), 0.25 mM DTT, 0.05% (w/v) polyoxyethylene 20 stearylether (Brij 78, Sigma, Germany, cat. no. P4019) (HMDB buffer) for 45 min at 30° C. […]

T1 sequence (Q9HBH9 whole entry): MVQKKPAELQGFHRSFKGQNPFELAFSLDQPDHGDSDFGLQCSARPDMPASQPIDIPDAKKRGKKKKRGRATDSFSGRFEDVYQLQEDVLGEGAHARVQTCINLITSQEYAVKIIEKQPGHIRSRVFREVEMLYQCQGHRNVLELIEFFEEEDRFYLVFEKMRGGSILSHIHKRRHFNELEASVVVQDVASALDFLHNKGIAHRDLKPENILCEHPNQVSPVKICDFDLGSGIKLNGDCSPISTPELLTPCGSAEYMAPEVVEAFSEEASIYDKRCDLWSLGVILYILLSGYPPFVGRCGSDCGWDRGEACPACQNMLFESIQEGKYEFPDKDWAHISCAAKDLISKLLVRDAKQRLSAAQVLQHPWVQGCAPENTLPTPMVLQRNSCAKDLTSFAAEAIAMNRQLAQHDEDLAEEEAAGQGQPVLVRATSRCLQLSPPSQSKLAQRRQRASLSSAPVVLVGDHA

Which IC50 does the source give for `Cc1c(Br)sc2ncnc(Nc3ccc(F)cc3OC(C)CN)c12` (stereo not shown) [Example 8, [2-(2-Amino-1-methyl-ethoxy)-4-fluoro-phenyl]-(6-bromo-5-methyl-thieno[2,3-d]pyrimidin-4-yl)-amine] here?
The IC50 was 11 nM.

With `Cc1c(Br)sc2ncnc(Nc3ccc(F)cc3OC(C)CNS(C)(=O)=O)c12` (stereo not shown) [Example 10, N-{2-[2-(6-Bromo-5-methyl-thieno[2,3-d]pyrimidin-4-ylamino)-5-fluoro-phenoxy]-propyl}-methanesulfonamide] as the compound, how does the IC50 read?
The IC50 was 8 nM.

Which IC50 does the source give for `Cc1c(Cl)sc2ncnc(Nc3ccc(F)cc3OC(C)CN)c12` (stereo not shown) [Example 13, [2-(2-Amino-1-methyl-ethoxy)-4-fluoro-phenyl]-(6-chloro-5-methyl-thieno[2,3-d]pyrimidin-4-yl)-amine trifluoroacetate] here?
The IC50 was 10 nM.

With `Cc1c(Cl)sc2ncnc(Nc3ccc(F)cc3OC(C)CNS(C)(=O)=O)c12` (stereo not shown) [Example 15, N-{2-[2-(6-Chloro-5-methyl-thieno[2,3-d]pyrimidin-4-ylamino)-5-fluoro-phenoxy]-propyl}-methanesulfonamide] as the compound, how does the IC50 read?
The IC50 was 9 nM.

With `CCOc1cc(C(N)=O)ccc1Nc1ncnc2sc(Cl)c(C)c12` [Example 16.2, 4-(6-Chloro-5-methyl-thieno[2,3-d]pyrimidin-4-ylamino)-3-ethoxy-benzamide] as the compound, how does the IC50 read?
Its IC50 is 16 nM.

Which IC50 does the source give for `Cc1c(Br)sc2ncnc(Nc3ccc(F)cc3OC(C)C)c12` [Example 18, (6-Bromo-5-methyl-thieno[2,3-d]pyrimidin-4-yl)-(4-fluoro-2-isopropoxy-phenyl)-amine] here?
Its IC50 is 58 nM.
